Experiments:
[1] = Tissue distribution study in rats; assay type: in vivo, Sprague-Dawley rats; settings: rat, 75 mg/kg; for highest level in cecum / highest level in jejunum / highest level in large intestine / highest level in lung / highest level in small intestine: within the first 24 h;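 as to highest level in cecum: three values per tissue are for i.v. then i.m. then p.o. dosing in that order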;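 as to highest level in jejunum: three values per tissue are for i.v. then i.m. then p.o. dosing in that order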;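 as to highest level in large intestine: three values per tissue are for i.v. then i.m. then p.o. dosing in that order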;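 as to highest level in lung: three values per tissue are for i.v. then i.m. then p.o. dosing in that order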
Experimental: We also successfully used the established LC-MS/MS method for detection of the concentration of DPTM in rat tissue homogenates. The quantification of DPTM used the specific standard curves in each corresponding bio-matrix. After i.v., i.m. and p.o. administration of 75 mg/kg DPTM, tissue distribution was investigated at 0.5, 4, 12 and 48 h by collecting the heart, liver, brain, spleen, lung, kidney, large intestine, small intestine, ileum, cecum, bladder, jejunum and colon. Tissue distribution study in rats was performed as described previously. Animals were divided into three groups (n = 12) and DPTM was administered via i.m., i.v. and p.o. with a single dose of 75 mg/kg. A series of heart, liver, spleen, lung, kidney, large intestine, small intestine, ileum, cecum, bladder, brain, jejunum and colon samples were collected before and at 0.5, 4, 12 and 48 h time points after administration and rinsed with phosphate buffer to remove the blood and feces, followed by weighing the wet weight and freezing at −70 °C until analysis. The concentrations of DPTM in rat various tissues were expressed in ng/g and calculated by equation: Ct = Cs × Vs/P, where Ct represented the tissue concentration (ng/g), Cs, Vs and P were the concentration (ng/mL), the volume (mL) and the weight (g) of the tissue samples, respectively.

[2] = Excretion via urine and feces study in rats; assay type: in vivo, Sprague-Dawley rats; settings: rat, 75 mg/kg
Experimental: Excretion via urine and feces was studied in another six rats (half male and half female). After the rats were administered via a single i.v., i.m. and p.o. dose (75 mg/kg) of DPTM, urine and feces samples were collected at 0–4, 4–8, 8–12, 12–24, 24–36, 36–48, 48–72, 72–96, 96–144, 144–192 and 192–240 h intervals in plastic centrifuge tubes and stored at −70 °C until analysis. For quantitative analysis, the fecal samples were dried at 45 °C for 24 h and prepared by the established sample treatment procedure. The urinary samples were prepared by the established sample treatment procedure directly. The obtained samples were injected into the HPLC-MS/MS system for analysis.

[3] = tested on: Gram-positive bacteria, including methicillin-resistant Staphylococcus aureus (MRSA), Staphylococcus aureus, Bacillus subtilis; design: method as in PMID 27940400; settings: S. aureus, B. subtilis; cited from earlier work

Q: Which “amount in colon until 48 h” value ([1]; i.m.) does the source give for C=CC1(C)CC(OC(=O)CSc2nc(N)cc(N)n2)C2(C)C(C)CCC3(CCC(=O)C32)C(C)C1O (centres unmarked) [DPTM, 14-O-[(4,6-Diaminopyrimidine-2-yl)thioacetyl] mutilin] here?
A: Its value is 7849 ± 243 ng/mg.

Q: What about the “highest level in cecum” value ([1]; i.m.) of the same compound?
A: Its value is 63404 ± 407 ng/mg.

Q: What about the “highest level in jejunum” value ([1]; i.m.) of the same compound?
A: Its value is 12551 ± 432 ng/mg.

Q: And the “highest level in large intestine” value ([1]; i.m.)?
A: The value was 17978 ± 116 ng/mg.

Q: And the “highest level in lung” value ([1]; i.m.)?
A: The value was 15345 ± 579 ng/mg.

Q: And the “highest level in small intestine” value ([1]; i.m.)?
A: Its value is 37890 ± 437 ng/mg.

Q: What about the “amount in colon until 48 h” value ([1]; i.v.) of the same compound?
A: Its value is 3214 ± 177 ng/mg.

Q: What about the “highest level in cecum” value ([1]; i.v.) of the same compound?
A: Its value is 62457 ± 675 ng/mg.

Q: And the “highest level in jejunum” value ([1]; i.v.)?
A: Its value is 23543 ± 799 ng/mg.

Q: And the “highest level in large intestine” value ([1]; i.v.)?
A: The value was 31241 ± 355 ng/mg.

Q: And the “highest level in lung” value ([1]; i.v.)?
A: Its value is 39411 ± 357 ng/mg.

Q: And the “highest level in small intestine” value ([1]; i.v.)?
A: The value was 26753 ± 690 ng/mg.

Q: What about the “amount in colon until 48 h” value ([1]; p.o.) of the same compound?
A: The value was 22114 ± 215 ng/mg.

Q: And the “highest level in cecum” value ([1]; p.o.)?
A: Its value is 31087 ± 452 ng/mg.

Q: What about the “highest level in jejunum” value ([1]; p.o.) of the same compound?
A: Its value is 38769 ± 546 ng/mg.

Q: What about the “highest level in large intestine” value ([1]; p.o.) of the same compound?
A: Its value is 4123 ± 567 ng/mg.

Q: And the “highest level in lung” value ([1]; p.o.)?
A: Its value is 14685 ± 654 ng/mg.

Q: What about the “highest level in small intestine” value ([1]; p.o.) of the same compound?
A: Its value is 6743 ± 474 ng/mg.

Q: And the “DPTM in urine (192 h) and feces (240 h) at the last acquisition time point” value ([2]; LLOQ 5 ng/mL)?
A: Its value is “lower than that of the LLOQ”.

Q: And the “prototype drug excreted in urine at 192 h” value (from here on “prototype drug excreted”) ([2]; i.m.)?
A: The value was 1.39%.

Q: What about the “prototype drug excreted” value ([2]; i.v.) of the same compound?
A: Its value is 1.63%.

Q: And the “prototype drug excreted” value ([2]; p.o.)?
A: The value was 1.20%.

Q: What about the “in vitro activities against Gram-positive bacteria” value [3] of the same compound?
A: The value was “excellent in vitro activities”.

From publication PMC6413085, “A Validated HPLC-MS/MS Assay for 14-O-[(4,6-Diaminopyrimidine-2-yl)thioacetyl] Mutilin in Biological Samples and Its Pharmacokinetic, Distribution and Excretion via Urine and Feces in Rats” (Molecules, 2019)
